Entries after “also recorded” stand apart in the source; their conditions may differ. Blank lines part the entries; values can stand above or below the molecule they belong to.
Legend:
OCT2 and MATE1 = test: Inhibition of basolateral-to-apical transcellular transport of ASP+ in OCT2/MATE1 double-transfected MDCK cells (Transwell); conditions: human, probe ASP+ (25 μM, basolateral chamber)
Experimental: (§1) Control and OCT2/MATE1-expressing MDCK cells were evaluated for protein expression of OCT2 and MATE1 using SDS-PAGE and western blotting with specific primary antibodies (OCT2, sc292622 1:500 and MATE1, sc133390 1:250, Santa Cruz Biotechnology, Santa Cruz, CA, USA), followed by an antirabbit HRP-conjugated secondary antibody (1:1000, Sigma Aldrich, St. Louis, MO, USA) and Super Signal Western Dura Extended Duration Substrate (Pierce Biotechnology, Rockford, IL, USA). Detection was performed with a FluorChem imager (ProteinSimple, Santa Clara, CA, USA). Both MDCK cell lines were seeded on 0.4 μm transwell inserts (VWR, Radnor, PA, USA) at a density of 2 × 10^5 cells/cm^2. Transport experiments were performed 3 to 5 days after seeding. The integrity of MDCK monolayers was verified by measuring transepithelial electrical resistance (TEER) >150 Ω*cm^2 using an epithelial voltohmmeter, EVOM^2 (World Precision Instruments, Sarasota, FL). Proper formation of tight junctions was also verified by measurement of passive permeability of lucifer yellow in the basolateral-to-apical (B-to-A) direction. Lucifer yellow (20 μM) was applied to the basolateral chamber for 1 h, and media were collected from the apical chamber.
(§2) After washing the cells once with Hank’s Buffered Saline Solution (HBSS) pH 7.4, transport studies were initiated after aspirating the wash buffer from both the apical and basal chambers. […] Cells were lysed with 1% Triton X-100. […] Intracellular fluorescence was normalized to total protein concentration of cell lysates from each transwell using the BCA assay. Experiments were performed in three individual Transwell inserts.

human OCT2 and MATE1 [1] = test: as above; conditions: inhibitor 0.5–20 μM
Experimental: as §1, §2

human OCT2 and MATE1 [2] = test: Intracellular accumulation of ASP+ in OCT2/MATE1 double-transfected MDCK cells; assay type: cell-based; conditions: 120 min
Experimental: (§3) Cells were incubated with 5-HT3 antagonists in the apical chamber in HBSS pH 6.0 and 5-HT3 antagonists with ASP^+ (25 μM) in the basolateral chamber in HBSS pH 7.4 and incubated at 37 °C for 120 min. To measure time-dependent transcellular transport, an aliquot of the incubation medium (100 μL) from the apical chamber (receiving chamber) was collected at 40, 60, 90, and 120 min and replaced with an equal volume of fresh buffer containing 5-HT3 antagonist or the positive control chemical at the original concentration. […] Cells were lysed with 1% Triton X-100. […] Experiments were performed in three individual Transwell inserts.

[3] = test system: vector control MDCK cells; test: Intracellular accumulation of ASP+ in vector control MDCK cells; assay type: cell-based, canine; conditions: 120 min
Experimental: as §3

[4] = no reference given, cited from earlier work
human OCT2 = biological target: T1, human OCT2 (Homo sapiens, UniProt O15244); test: Inhibition of ASP+ uptake in HEK293 cells overexpressing OCT2; assay type: cell-based; conditions: ASP+ 10 μM
T1 construct: expressed in transfected cells; gift of Dr. Kathy Giacomini, UCSF
T1 sequence (O15244 1-555): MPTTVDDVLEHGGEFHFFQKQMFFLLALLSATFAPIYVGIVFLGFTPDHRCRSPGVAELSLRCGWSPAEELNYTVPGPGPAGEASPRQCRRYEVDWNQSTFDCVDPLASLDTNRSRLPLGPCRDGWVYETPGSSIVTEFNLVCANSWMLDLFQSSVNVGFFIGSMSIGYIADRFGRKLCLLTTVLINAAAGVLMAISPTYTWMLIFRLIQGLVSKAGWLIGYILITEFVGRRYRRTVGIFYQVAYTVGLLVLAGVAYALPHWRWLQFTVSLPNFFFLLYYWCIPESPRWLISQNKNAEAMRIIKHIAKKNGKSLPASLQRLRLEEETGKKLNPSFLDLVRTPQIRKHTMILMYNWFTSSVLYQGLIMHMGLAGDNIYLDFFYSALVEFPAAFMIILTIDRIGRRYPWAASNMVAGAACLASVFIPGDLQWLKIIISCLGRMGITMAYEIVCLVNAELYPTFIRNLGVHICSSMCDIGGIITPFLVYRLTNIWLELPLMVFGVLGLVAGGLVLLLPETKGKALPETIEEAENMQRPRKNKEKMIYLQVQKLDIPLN
Experimental: (§4) After washing once with prewarmed Hank’s Buffered Saline Solution (HBSS), cells were preincubated for 30 min at 37 °C with various 5-HT3 antagonists for OCT2 cells or in a 30 mM NH4Cl solution in HBSS at pH 6.5 for MATE1 cells for intracellular acidification. Uptake into OCT2 cells was initiated through exposure to 10 μM of fluorescent substrate ASP^+ directly in the incubation media. Uptake into MATE1 cells was initiated by application of HBSS at pH 7.4 containing 5-HT3 antagonists and 10 μM of fluorescent substrate ASP^+. […] Media was removed and washed four times with ice-cold HBSS. Cells were lysed with 1% Triton X-100. […] Intracellular fluorescence was normalized to total protein concentration of cell lysates from each well using the bicinchoninic acid (BCA) assay (Pierce Biotechnology, Rockford, IL, USA). Experiments were repeated three separate times, with three to four replicates in each experiment.
(§5) GraphPad Prism v6 (GraphPad Software, La Jolla, CA, USA) was used for statistical analysis.

MATE1 = biological target: T2, MATE1 (Homo sapiens, UniProt Q96FL8); test: Inhibition of ASP+ uptake in HEK293 cells overexpressing MATE1; assay type: cell-based; conditions: inhibitor 10 μM, HEK293-MATE1 (data not shown)
T2 construct: expressed in transfected cells; gift of Dr. Kathy Giacomini, UCSF
T2 sequence (Q96FL8 1-570): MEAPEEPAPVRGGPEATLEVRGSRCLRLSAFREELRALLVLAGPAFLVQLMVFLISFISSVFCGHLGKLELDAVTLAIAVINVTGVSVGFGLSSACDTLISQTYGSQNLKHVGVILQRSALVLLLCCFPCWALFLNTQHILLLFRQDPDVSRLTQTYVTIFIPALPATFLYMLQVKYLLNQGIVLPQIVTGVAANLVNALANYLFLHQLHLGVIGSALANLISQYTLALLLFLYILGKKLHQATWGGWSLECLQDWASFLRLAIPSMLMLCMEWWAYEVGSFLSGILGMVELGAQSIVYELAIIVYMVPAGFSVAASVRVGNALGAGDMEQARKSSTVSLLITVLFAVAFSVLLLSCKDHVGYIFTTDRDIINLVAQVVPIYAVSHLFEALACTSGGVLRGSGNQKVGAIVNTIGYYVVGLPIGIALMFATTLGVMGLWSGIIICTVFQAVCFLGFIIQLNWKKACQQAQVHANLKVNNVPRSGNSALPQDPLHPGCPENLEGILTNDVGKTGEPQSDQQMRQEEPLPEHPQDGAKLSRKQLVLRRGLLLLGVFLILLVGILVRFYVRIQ
Experimental: as §4, §5

[5] = substrate: CN(C)c1ccc(/C=C/c2cc[n+](C)cc2)cc1; test: Concentration-dependent uptake of ASP+ in OCT2-expressing HEK293 cells; assay type: cell-based, human; conditions: other: OCT2-expressing HEK293, 0–100 μM, 1 min; 37.0 °C
Experimental: Figure 2 Time and Concentration-Dependent Accumulation of ASP^+ in HEK293 Cells Overexpressing OCT2 or MATE1. HEK cells expressing empty vector (EV), OCT2, or MATE1 were incubated for different time periods (0.5–20 min, 10 μM ASP^+, 37 °C) to evaluate time-dependent uptake (A) or with increasing concentrations of ASP^+ (0–100 μM, 1 min 37 °C) for concentration-dependent uptake (B) on a shaker. Specific transport uptake is shown in dashed lines. Intracellular fluorescence was quantified and normalized to protein concentration. Data are presented as mean ± SE (n = 3).
OCT2- and MATE1-overexpressing HEK293 cells were seeded in clear poly-^D-lysine-coated 24-well plates (Fisher Scientific, Hanover Park, IL, USA) and grown for 24 h until approximately 90% confluent. […]
GraphPad Prism v6 (GraphPad Software, La Jolla, CA, USA) was used for statistical analysis. Km and Vmax were calculated using nonlinear regression (Michaelis–Menten enzyme kinetics equation, (Y = Vmax × X/(Km + X), fit for least squares). Data with two variables were analyzed using a two-way ANOVA followed by a one-way ANOVA and/or Dunnett’s post-hoc test for multiple comparisons. IC50 values were calculated via a nonlinear regression to fit least squares. Differences were considered statistically significant at p < 0.05.

inhibition at 120 min, 20 μM (OCT2 and MATE1): 36%
inhibition of basolateral-to-apical transcellular transport of ASP+, up to (human OCT2 and MATE1 [1]): up to 64%
Molecule: Cc1nccn1CC1CCc2c(c3ccccc3n2C)C1=O (centres unmarked) [Ondansetron]
effect on B-to-A transport of ASP+ (human OCT2 and MATE1 [1]; 40–120 min, ASP+ 25 μM): inhibited the B-to-A transport of ASP^+ in a concentration-dependent manner; also recorded: inhibited the basolateral-to-apical ASP^+ secretion at all concentrations tested
increase in intracellular ASP+ accumulation (human OCT2 and MATE1 [2]; inhibitor 0.5 and 2.5 μM): 1.3 fold
effect on intracellular ASP+ accumulation (human OCT2 and MATE1 [2]; inhibitor 0.5–20 μM, ASP+ 25 μM): at concentrations of 0.5 and 2.5 μM caused significant intracellular accumulation of ASP^+; also recorded: no difference compared to vehicle at higher concentrations (10 and 20 μM)
decrease in accumulation of ASP+ in control cells ([3]; high concentrations of inhibitor): 40%
half-life [4]: < 6 h
metabolized by cytochrome P450 enzymes in the liver ([4]; range for the named drugs together): 48–95%

Molecule: Cc1cc2c(s1)Nc1ccccc1N=C2N1CCN(C)CC1 [olanzapine]
effect on ASP+ uptake in OCT2-expressing HEK293 cells (human OCT2): inhibited OCT2 activity across a range of concentrations
inhibition of MATE1 activity (MATE1): None of these drugs inhibited MATE1 activity
decrease in intracellular accumulation of ASP+ (human OCT2 and MATE1 [2]; inhibitor 20 μM): 51%
effect on intracellular accumulation of ASP+ in control cells ([3]; cimetidine 5 and 50 μM, pyrimethamine 1 μM, olanzapine 20 μM): modest decrease in ASP^+ accumulation

B1: human OCT2 (Homo sapiens) (protein)
chain: MPTTVDDVLEHGGEFHFFQKQMFFLLALLSATFAPIYVGIVFLGFTPDHRCRSPGVAELSLRCGWSPAEELNYTVPGPGPAGEASPRQCRRYEVDWNQSTFDCVDPLASLDTNRSRLPLGPCRDGWVYETPGSSIVTEFNLVCANSWMLDLFQSSVNVGFFIGSMSIGYIADRFGRKLCLLTTVLINAAAGVLMAISPTYTWMLIFRLIQGLVSKAGWLIGYILITEFVGRRYRRTVGIFYQVAYTVGLLVLAGVAYALPHWRWLQFTVSLPNFFFLLYYWCIPESPRWLISQNKNAEAMRIIKHIAKKNGKSLPASLQRLRLEEETGKKLNPSFLDLVRTPQIRKHTMILMYNWFTSSVLYQGLIMHMGLAGDNIYLDFFYSALVEFPAAFMIILTIDRIGRRYPWAASNMVAGAACLASVFIPGDLQWLKIIISCLGRMGITMAYEIVCLVNAELYPTFIRNLGVHICSSMCDIGGIITPFLVYRLTNIWLELPLMVFGVLGLVAGGLVLLLPETKGKALPETIEEAENMQRPRKNKEKMIYLQVQKLDIPLN
notes: expressed in transfected cells; gift of Dr. Kathy Giacomini, UCSF
Km [5]: 2.9 µM
Vmax [5]: 8.1 nmol/mg/min

From article PMC8234231, “In Vitro Inhibition of Renal OCT2 and MATE1 Secretion by Antiemetic Drugs” (International Journal of Molecular Sciences, 2021)
